Measurements: patent US6517836B1, “Nitrophenylaziridine compounds and their use as prodrugs” (Auckland Uniservices Limited, priority 1998, dated 2003)

What was measured:
[1] = test system: Chinese hamster fibroblast NR+ line (T79-A3), NR transfectant; assay: Cytotoxicity, 18 h drug exposure, V79 NR+ line (T79-A3); type: cell-based; settings: Cricetulus griseus, Fibroblast; T79-A3 cells, 18 h drug exposure; read-out: V-79 NR+ IC50
From the text: (§1) The Chinese hamster fibroblast NR− line (T78-1) is a V79/4 Chinese hamster fibroblast transfected with an empty shuttle vector, while the NR+ line (T79-A3) is the corresponding NR transfectant. The human colon carcinoma NR− line (WIDR) is wild-type, while the NR+ line (WC14 10) is the corresponding NR transfectant. The human ovarian carcinoma NR− line (SKOV3) is wild-type, while the NR+ line (SC3.2) is the corresponding NR transfectant. EMT6 is a mouse mammary carcinoma line, and EN2A is the NR-transformed counterpart.

[2] = test system: human colon carcinoma NR+ line (WC14 10), NR transfectant; assay: Cytotoxicity, 18 h drug exposure, WiDr NR+ line (WC14 10); type: cell-based; settings: Homo sapiens, WiDr; WC14 10 cells, 18 h drug exposure; read-out: WiDr NR+ IC50
From the text: as §1

[3] = test system: EN2A, NR-transformed counterpart of EMT6; assay: Cytotoxicity, 18 h drug exposure, EMT6 NR+ line (EN2A); type: cell-based, mouse; settings: Mus musculus, EMT6; EN2A cells, 18 h drug exposure; read-out: EMT6 NR+ IC50
From the text: as §1

[4] = test system: EMT6 mouse mammary carcinoma line; assay: Cytotoxicity, 18 h drug exposure, EMT6 NR− line; type: cell-based; settings: Mus musculus; EMT6 cells, 18 h drug exposure; read-out: EMT6 NR− IC50
From the text: as §1

[5] = test system: human colon carcinoma NR− line (WIDR), wild-type; assay: Cytotoxicity, 18 h drug exposure, WiDr NR− line; type: cell-based; settings: Homo sapiens; WIDR cells, 18 h drug exposure; read-out: WiDr NR− IC50
From the text: as §1

[6] = test system: Chinese hamster fibroblast NR− line (T78-1), V79/4 transfected with an empty shuttle vector; assay: Cytotoxicity, 18 h drug exposure, V79 NR− line (T78-1); type: cell-based; settings: Cricetulus griseus; T78-1 cells, 18 h drug exposure; read-out: V-79 NR− IC50
From the text: as §1

[7] = test system: human ovarian carcinoma NR− line (SKOV3), wild-type; assay: Cytotoxicity, 18 h drug exposure, SKOV3 NR− line; type: cell-based; settings: Homo sapiens, SK-OV-3; SKOV3 cells, 18 h drug exposure; read-out: SKOV NR− IC50
From the text: as §1

[8] = test system: human ovarian carcinoma NR+ line (SC3.2), NR transfectant; assay: Cytotoxicity, 18 h drug exposure, SKOV NR+ line (SC3.2); type: cell-based; settings: Homo sapiens; SC3.2 cells, 18 h drug exposure; read-out: SKOV NR+ IC50
From the text: as §1

Question: Which IC50 [1] does the source give for `NC(=O)c1cc([N+](=O)[O-])c(N2CC2)c([N+](=O)[O-])c1` [Compound 19, 4-(Aziridin-1-yl)-3,5-dinitrobenzamide] here?
Answer: The IC50 was greater than 20 µM.

Question: What about the IC50 [2] of the same molecule?
Answer: The IC50 was greater than 20 µM.

Question: What about the IC50 [3] of the same molecule?
Answer: The IC50 was greater than 20 µM.

Question: And the melting point?
Answer: Its melting point is 228 to 231 °C.

Question: What about the IC50 [4] of the same molecule?
Answer: Its IC50 is greater than 20 µM.

Question: And the IC50 [5]?
Answer: The IC50 was greater than 20 µM.

Question: And the IC50 [6]?
Answer: Its IC50 is greater than 20 µM.

Question: What about the IC50 [7] of the same molecule?
Answer: Its IC50 is greater than 20 µM.

Question: And the IC50 [8]?
Answer: The IC50 was greater than 20 µM.
